# Results: patent US20090181920A1, “INTRATHECAL TREATMENT OF NEUROPATHIC PAIN WITH A2AR AGONISTS” (PGXHEALTH, LLC, priority 2008, published 2009)
# How the values were obtained:
# CCI-induced allodynia [1] = assay: Chronic constriction injury (CCI) neuropathic pain model, von Frey testing after a single intrathecal injection; assay type: in vivo, Sprague Dawley rats; details: for Effect on CCI-induced allodynia relative to ATL313 and CGS21680: tested at 1 uM
# Method: (§1) Saline is used as the vehicle in the experiments. All A2A agonists are dissolved in 100% DMSO to a 10 mM concentration. These are then diluted 1:10,000 with saline. The total volume of injection for all groups is 5 μL, which consists of a 1 μL air bubble, 1 μL of agonist/vehicle, 1 μL air bubble, and finally a 2 μL flush of saline. The intermediate air bubble is used to separate drug/vehicle and the flush.
# Sprague Dawley rats underwent chronic constriction injury (CCI) of the sciatic nerve or sham surgery. After pre-surgery baseline testing (Day 0=D0), rats received chronic constriction injury of the left sciatic nerve at mid-thigh level to produce neuropathic pain (chronic constriction injury model: CCI). This is seen by the fall in pain threshold between days 4 and 11 (D4, D11) after surgery relative to D0. Once CCI-induced allodynia was stable as tested by von Frey filaments, the material to be studied (e.g., vehicle or A2AR agonists CGS21680 or ATL313) was injected intrathecally. After injection, behavioral testing occurred at 4, 24, and 72 h and then weekly for 6 weeks.
# The results of the studies are shown in FIG. 1 with the translation of Y-axis units as follows: 5=10 grams, 4.75=5.62 grams, 4.5=3.16 grams, 4.25=[…], 4=1 gram, 3.75=0.56 grams, 3.5=0.32 grams.
# Although the CCI surgery is unilateral (left sciatic nerve), the allodynia is present bilaterally. In addition, the reversal of allodynia by A2A agonism also occurs bilaterally. Therefore, ATL313 activates A2A receptors within the spinal cord altering the mechanisms leading to central sensitization.
# The animals following unilateral CCI surgery of the left sciatic nerve, as noted above, have allodynia in both hind paws. For simplicity all graphs show left hind paw responses only, as the right hind paw had equivalent responses.
# CCI-induced allodynia [2] = assay: Blockade and reversal of A2A agonist (ATL313) by antagonist ZM241385 in the CCI model, von Frey testing; assay type: in vivo, male Sprague-Dawley rats
# Method: as §1
# CCI surgery and indwelling intrathecal catheters were implanted in male Sprague-Dawley rats (325-350 g, n=6/group). 10-14 days after surgery, when the allodynia is stable, an A2A antagonist (ZM241385, 10 uM, Tocris Bioscience) or vehicle was co-administered with ATL313 or vehicle. von Frey testing was done before surgery, before intrathecal injections, and 1, 2, 3, 4, 6, and 24 h after injection.
# In a separate group of animals, ATL313 (1 uM) was administered 10-14 days after CCI surgery. One week after ATL313 (1 uM, i.t.) administration, ZM241385 (10 uM) or equivolume vehicle was administered intrathecally. von Frey testing was done 1, 2, 3, 4, 6 & 24 h after injection.
# [3] = single intrathecal injection, 1 uM, given 10-14 days after CCI surgery, P<0.05
compound,measurement,setting,value
"COC(=O)N1CCC(CC#Cc2nc(N)c3ncn(C4OC(C(=O)NC5CC5)C(O)C4O)c3n2)CC1 (centres unmarked) [ATL313, 4-{3-[6-amino-9-(5-cyclopropylcarbamoyl-3,4-dihydroxy-tetrahydro-furan-2-yl)-9H-purin-2-yl]-prop-2-ynyl}-piperidine-1-carboxylic acid methyl ester]",Effect on CCI-induced allodynia,"CCI-induced allodynia [1]; 0.1 uM in 5 uL intrathecal, compared to saline-injected animals, P>0.05",no significant impact on CCI-induced allodynia
same,Analgesic effect in sham-operated animals,"CCI-induced allodynia [1]; sham-operated animals, intrathecal, P>0.05",no effect on sham-operated animals
same,Duration of reversal of allodynia,CCI-induced allodynia [1]; [3],at least 4 weeks
same,Effect on CCI-induced allodynia (mechanical sensitivity to von Frey filaments),CCI-induced allodynia [1]; [3],partial reversal of the allodynia
"CCNC(=O)[C@H]1O[C@@H](n2cnc3c(N)nc(NCCc4ccc(CCC(=O)O)cc4)nc32)[C@H](O)[C@@H]1O [CGS21680, 3-[4-[2-[[6-amino-9-[(2R,3R,4S,5S)-5-(ethylcarbamoyl)-3,4-dihydroxy-oxolan-2-yl]purin-2-yl]amino]ethyl]phenyl]propanoic acid, reference compound]",Reversal of CCI-induced allodynia compared with ATL313,"CCI-induced allodynia [1]; intrathecal, at a 10-fold higher dose than that of ATL313, P<0.001","comparable reversal of CCI-induced allodynia, in both duration and intensity"
"COc1ccccc1OC(=O)N1CCC(CC#Cc2nc(N)c3ncn(C4OC(C(=O)NC5CC5)C(O)C4O)c3n2)CC1 (centres unmarked) [Compound A, 4-{3-[6-Amino-9-(5-cyclopropylcarbamoyl-3,4-dihydroxy-tetrahydro-furan-2-yl)-9H-purin-2-yl]-prop-2-ynyl}-piperidine-1-carboxylic acid 2-methoxyphenyl ester]",Effect on CCI-induced allodynia relative to ATL313 and CGS21680,CCI-induced allodynia [1]; intrathecal,ranged between ATL313 (1 μM) and CGS21680 (1 μM)
"Nc1nc(C#CCC2CCN(C(=O)OC3CCC3)CC2)nc2c1ncn2C1OC(C(=O)NC2CC2)C(O)C1O (centres unmarked) [Compound B, 4-{3-[6-Amino-9-(5-cyclopropylcarbamoyl-3,4-dihydroxy-tetrahydro-furan-2-yl)-9H-purin-2-yl]-prop-2-ynyl}-piperidine-1-carboxylic acid cyclobutyl ester]",Effect on CCI-induced allodynia relative to ATL313 and CGS21680,CCI-induced allodynia [1]; intrathecal,ranged between ATL313 (1 μM) and CGS21680 (1 μM)
"Nc1nc(C#CCC2CCN(C(=O)OCC3CC3)CC2)nc2c1ncn2C1OC(C(=O)NC2CC2)C(O)C1O (centres unmarked) [Compound C, 4-{3-[6-Amino-9-(5-cyclopropylcarbamoyl-3,4-dihydroxy-tetrahydro-furan-2-yl)-9H-purin-2-yl]-prop-2-ynyl}-piperidine-1-carboxylic acid cyclopropylmethyl ester]",Effect on CCI-induced allodynia relative to ATL313 and CGS21680,CCI-induced allodynia [1]; intrathecal,ranged between ATL313 (1 μM) and CGS21680 (1 μM)
Nc1nc(NCCc2ccc(O)cc2)nc2nc(-c3ccco3)nn12 [ZM241385],Effect of co-administered antagonist on the ATL313 effect on CCI-induced allodynia,"CCI-induced allodynia [2]; ZM241385 10 uM co-administered intrathecally with ATL313 1 uM, 10-14 days after CCI surgery, P<0.0001",abolishes the effect of ATL313 on the CCI-induced allodynia
same,Effect of antagonist on the established reversal of allodynia,"CCI-induced allodynia [2]; ZM241385 10 uM intrathecal, one week after ATL313 1 uM i.t.",had no effect on reversal of the allodynia induced by the previous ATL313 administration
same,Effect of antagonist alone on CCI-induced allodynia,"CCI-induced allodynia [2]; ZM241385 10 uM intrathecal, without agonist, P>0.05",has no effect on the CCI-induced allodynia
